Assay results: publication PMC7203344, “Sirtuin 1 Inhibiting Thiocyanates (S1th)—A New Class of Isotype Selective Inhibitors of NAD^+ Dependent Lysine Deacetylases” (Frontiers in Oncology, 2020)

Assays:
human Sirt5 = molecular target: T1, human Sirt5 (Homo sapiens, UniProt Q9NXA8); assay: Homogeneous ZKsA-based fluorescence assay for Sirt5; type: biochemical; settings: inhibition tested @ 10 μM
T1 construct: Recombinant human Sirt5_37−310 was purchased readily in Tris Buffer; purchased Enzo Life Sciences (NY, USA)
T1 sequence (Q9NXA8 37-310): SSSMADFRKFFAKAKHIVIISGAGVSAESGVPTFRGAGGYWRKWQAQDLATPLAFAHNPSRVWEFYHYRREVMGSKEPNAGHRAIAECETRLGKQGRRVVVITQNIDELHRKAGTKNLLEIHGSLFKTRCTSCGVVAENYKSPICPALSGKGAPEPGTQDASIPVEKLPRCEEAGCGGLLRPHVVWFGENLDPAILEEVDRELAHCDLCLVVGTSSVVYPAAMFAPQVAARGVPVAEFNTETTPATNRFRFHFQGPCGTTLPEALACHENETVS
Protocol: Recombinant human Sirt5_37−310 was purchased readily in Tris Buffer [25 mM Tris, 100 mM NaCl, 5 mM DTT, 10% glycerol (v/v)] from Enzo Life Sciences (NY, USA). Human Sirt3_118−395 was expressed and purified as described previously ([54]). For expression of human Sirt1_134−747 and Sirt2_56−356 chemically competent cells of E. coli BL21 Star (DE3) were transformed with the expression vectors pET30S-hSirt1_134−747 or pET30S-hSirt2_56−356. Bacteria were grown at 37°C in 2×YT medium supplemented with 50 μg·mL^−1 of kanamycin to an OD600 of 0.6. Then isopropyl-β-D-1-thiogalactopyranoside (IPTG) was added to a final concentration of 1 mM to induce gene expression. After further cultivation at 20°C for 12 h, the cells were harvested by centrifugation for 15 min at 5,000 g. The cells were resuspended in lysis buffer [100 mM Tris/HCl buffer at pH 8.0, 150 mM NaCl and 10% (v/v) glycerol] and disrupted by ultrasonication (Branson Digital Sonifier 250) at 70% amplitude for 10 min (3 s working, 10 s pause). The crude extract was cleared by centrifugation at 100,000 g for 1 h, and the supernatant was loaded onto a Strep-Tactin Superflow cartridge (5 ml bed volume, IBA Lifescience, Germany). Target proteins were eluted with lysis buffer containing 5 mM D-Desthiobiotin (IBA Lifescience, Germany) and further separated by size-exclusion chromatography (Superdex S200 26/60, GE Healthcare, IL, USA) equilibrated in Tris/HCl buffer (20 mM, 150 mM NaCl, pH 8.0). Pure protein was concentrated by ultrafiltration, flash-frozen in liquid nitrogen and stored at −80°C until further use. Identity as well as purity were verified by SDS-PAGE ([55]) and protein concentration was determined by the bicinchoninic acid (BCA) method, using bovine serum albumin (BSA) as a standard ([56]). Deacetylase activity was confirmed to be NAD^+-dependent and could be inhibited with the physiological sirtuin inhibitor nicotinamide.
Inhibition of Sirt5 was measured using a general procedure described before with small modifications ([58]). Sirt5 was purchased from Enzo Life Science (NY, USA) and used as received. Z-Lys(succ)-aminomethyl coumarin (ZKsA) was used as a substrate for Sirt5 mediated desuccinylation. In black 384-well non-binding plates (Greiner Bio-One, Monroe, NC) Sirt5 was mixed with 2 μL of ZKsA (1 mM stock solution in assay buffer [(50 mM Tris·HCl, 137 mM NaCl, 2.7 mM KCl, 1 mM MgCl2, pH 8.0, and 0.1% PEG8000), 100 μM final assay concentration], 1 μL of Inhibitor dissolved in DMSO or DMSO as a control [final DMSO concentration 5% (v/v)], 2 μL NAD^+ (5 mM stock solution in assay buffer, final assay concentration 500 μM) and filled up to a total volume of 20 μL with assay buffer. The mixture was incubated for 1 h at 37°C and 140 rpm before 4 μL of trypsin solution (50 mM Tris, 100 mM NaCl, pH 8.0, 6 mg/mL trypsin buffer, 1 mg/mL final assay concentration) was added to stop the enzymatic reaction. After 2 min of incubation at 37°C and 140 rpm fluorescence intensity was detected as described above. Sirt5 concentration was adjusted to 15–30% substrate conversion. A negative control without enzyme and a positive control containing AMC instead of ZKsA were performed as well. Inhibition was calculated in % in relation to a DMSO control and was determined in triplicates.

deubiquitinases (DUBs) = assay: DUB labeling on HEK293T cell lysate with Rhodamine-Ub-PA probe; type: biochemical, human; design: key to Qualitative pan-DUB inhibition @ 10 μM / Qualitative pan-DUB inhibition @ 50 μM: n.i.: no inhibition (<10%); +: low inhibition; +++: full inhibition; settings: for Qualitative pan-DUB inhibition @ 10 μM / Qualitative pan-DUB inhibition @ 50 μM: HEK293T cell lysate
Protocol: Pan-inhibition of deubiquitinases (DUBs) was tested using HEK293T cell lysate (human embryonic kidney cells, human). Cells were harvested and resuspended in HR buffer (50 mM Tris, 5 mM MgCl2, 250 mM sucrose, 1 mM DTT, pH 7.4). Cell lysis was achieved by sonication (Bioruptor, Diagenode, high intensity for 10 min with an ON/OFF cycle of 30 s) at 4°C and the cell debris was removed by centrifugation at 13,500 rpm for 15 min. Cell lysate protein concentration was determined with a NanoDrop spectrophotometer (NanoDrop One™ Spektrophotometer, Thermo Fisher, MA, USA) by measuring absorbance at 280 nm. Nineteen microliter of the lysate (2 μg/μL) were incubated with inhibitors dissolved in DMSO at various concentrations or DMSO as a control for 30 min at 37°C. Afterwards 1 μL of Rhodamine-Ub-PA (1 μM final assay concentration) was added to each sample, followed by further incubation for 40 min at 37°C ([61]). The labeling reaction was stopped by addition of NuPAGE 4× LDS sample buffer (Invitrogen Life Technologies, Carlsbad, CA, USA) containing β-mercaptoethanol and boiling for 7 min at 95°C. The proteins of the samples as well as protein marker (PageRuler™ Pre-stained Protein Ladder, 10–250 kDa, Thermo Fisher, MA, USA) were resolved by a 4–12% SDS-PAGE using the NuPAGE system with MOPS running buffer (Invitrogen Life Technologies, Carlsbad, CA, USA). The resulting gel was scanned with a Typhoon imager (GE Healthcare Life Sciences, USA) to visualize the Rhodamine-Ub-PA probe and Cy5 (marker). Subsequently the gel was stained with InstantBlue™ Protein Stain (Expedeon, UK) and scanned on a Amersham scanner (Amersham Typhoon gel and blot imaging system, GE Healthcare Life Sciences, USA).

HeLa cells = assay: Colony forming assay with HeLa cells; type: cell-based, human; settings: 7–10 days; concentrations as in proliferation assay
Protocol: For colony assays, 50 cells per well were seeded in 6-well plates and grown in the same conditions with the same drug concentrations as for the proliferation assays. In this case, the growth media containing the drugs was replaced every 48 h. After 7–10 days, when isolated colonies were formed, wells were washed with PBS, and cells were fixed with cold methanol for 5 min at RT. Cells were stained with crystal violet for 10 min at RT and washed with H2O. Images were acquired using iBright (Thermo Fisher Scientific, MA, USA). For quantification, cells of each well were resuspended in 10% glacial acetic acid to dissolve crystal violet whose levels were monitored by measuring absorbance at 590 nm. The experiment was performed in duplicates.

Compound	inhibition at 10 µM (human Sirt5)	Qualitative pan-DUB inhibition @ 10 μM (deubiquitinases (DUBs))	Qualitative pan-DUB inhibition @ 50 μM (deubiquitinases (DUBs))	inhibition of DUBs (in words) (deubiquitinases (DUBs); HEK cell lysate, Rhodamine-Ub-PA probe)	colony forming of HeLa cells (HeLa cells)
N#CSc1cc(SC#N)c(N)nc1N [PR-619, reference compound]	28%	+	+++	inhibits all DUBs tested in a concentration dependent manner	–
N#CSc1cccc(NC(=O)[C@H]2CC=CC[C@H]2C(=O)O)c1 [S1th 10]	< 10%	n.i. (no inhibition (<10%))	n.i. (no inhibition (<10%))	–	only mild effects
CCCCNC(=O)Nc1cccc(SC#N)c1 [S1th 11]	< 10%	n.i. (no inhibition (<10%))	n.i. (no inhibition (<10%))	–	–
COc1ccc(SC#N)cc1OCC(=O)N(CCC#N)CCC#N [S1th 12]	< 10%	n.i. (no inhibition (<10%))	n.i. (no inhibition (<10%))	–	only mild effects
N#CSc1cccc(NS(=O)(=O)c2ccc3c(c2)OCCO3)c1 [S1th 13]	< 10%	n.i. (no inhibition (<10%))	n.i. (no inhibition (<10%))	–	almost as potent as EX-527
